In US20260042755A1, “GPR6 INVERSE AGONISTS” (MapLight Therapeutics, Inc., priority 2022, published 2026):
pIC50: −log10 of the molar value.

Key:
GPR3 = molecular target: T1, GPR3 (Homo sapiens, UniProt P46089); assay: GPR3 antagonist functional cAMP assay (LANCE Ultra cAMP TR-FRET, CHO cells stably expressing GPR3); assay type: cell-based
T1 construct: expressed in transfected cells; host or cells: CHO cells
Outline: (§1)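 10,000 cells/well; KRB buffer + 0.1% BSA + 150 μM Ro 20-1724; cpd 45 min, 37 °C, 0.1% DMSO; TR-FRET cAMP, 665 nm; 4-PL fit, normalized to DMSO (0.1%) and reference (100%) → IC50.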

GPR6 = molecular target: T2, GPR6 (Homo sapiens, UniProt P46095); assay: GPR6 antagonist functional cAMP assay (LANCE Ultra cAMP TR-FRET, CHO cells stably expressing GPR6); assay type: cell-based
T2 construct: expressed in transfected cells; host or cells: CHO cells
T2 sequence (P46095 whole entry): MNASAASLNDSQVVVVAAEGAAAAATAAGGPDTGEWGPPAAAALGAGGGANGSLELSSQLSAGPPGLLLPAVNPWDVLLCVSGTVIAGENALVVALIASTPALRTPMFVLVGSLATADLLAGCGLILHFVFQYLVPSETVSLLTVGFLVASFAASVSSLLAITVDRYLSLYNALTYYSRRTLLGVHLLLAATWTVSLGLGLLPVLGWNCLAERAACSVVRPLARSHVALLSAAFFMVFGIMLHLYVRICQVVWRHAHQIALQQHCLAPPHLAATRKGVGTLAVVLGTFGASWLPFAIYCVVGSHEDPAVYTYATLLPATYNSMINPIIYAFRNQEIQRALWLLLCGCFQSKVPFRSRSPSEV
Outline: as §1

[1] = CHO cells stably expressing GPR3, cAMP assay
[2] = CHO cells stably expressing GPR6, cAMP assay

T1 sequence (P46089 whole entry, species assumed): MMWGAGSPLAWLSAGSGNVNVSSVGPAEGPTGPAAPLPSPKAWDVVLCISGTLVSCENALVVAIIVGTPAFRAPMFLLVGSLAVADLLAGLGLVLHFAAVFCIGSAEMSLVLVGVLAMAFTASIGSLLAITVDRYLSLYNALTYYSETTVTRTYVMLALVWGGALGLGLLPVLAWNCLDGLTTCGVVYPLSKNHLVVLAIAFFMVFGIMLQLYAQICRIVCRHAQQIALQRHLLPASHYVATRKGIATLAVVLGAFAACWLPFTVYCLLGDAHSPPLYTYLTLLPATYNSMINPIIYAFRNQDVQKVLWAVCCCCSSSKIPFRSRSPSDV

Structure (SMILES)	pIC50 (GPR3; [1])	pIC50 (GPR6; [2])	pIC50 (GPR3; procedure of Example 24)	pIC50 (GPR6; procedure of Example 24)
CC(C)(O)C(O)c1cc2nc(N3CCN(Cc4ccccc4F)CC3)c(-c3cnn(CF)c3)nc2cn1 (stereo not shown) [Compound 606, 1-{3-[1-(fluoromethyl)-4-pyrazolyl]-2-{4-[(o-fluorophenyl)methyl]-1-piperazinyl}-1,4,6-triaza-7-naphthyl}-2-methyl-1,2-propanediol]	4.52 to 6.00	6.00 to 7.00	–	–
CC(C)(O)C(C)(O)c1cc2nc(N3CCN(Cc4ccc(F)cc4F)CC3)c(-c3cnn(CF)c3)nc2cn1 (stereo not shown) [Compound 607, 2-(2-{4-[(2,4-difluorophenyl)methyl]-1-piperazinyl}-3-[1-(fluoromethyl)-4-pyrazolyl]-1,4,6-triaza-7-naphthyl)-3-methyl-2,3-butanediol]	4.52 to 6.00	6.00 to 7.00	–	–
CC(C)(O)C(=O)c1cc2nc(N3CCN(Cc4ccccc4F)CC3)c(-c3cnn(CF)c3)nc2cn1 [Compound 608, 1-{3-[1-(fluoromethyl)-4-pyrazolyl]-2-{4-[(o-fluorophenyl)methyl]-1-piperazinyl}-1,4,6-triaza-7-naphthyl}-2-hydroxy-2-methyl-1-propanone]	4.52 to 6.00	6.00 to 7.00	–	–
CC(=O)N1CCc2nc(N3CCN(Cc4ccc(F)cc4F)CC3)c(-c3ccc(F)c(N)n3)nc2C1 [Compound 609, 1-[3-(6-amino-5-fluoro-2-pyridyl)-2-{4-[(2,4-difluorophenyl)methyl]-1-piperazinyl}-5,6,7,8-tetrahydro-1,4,6-triaza-6-naphthyl]-1-ethanone]	6.00 to 7.00	6.00 to 7.00	–	–
CC(=O)N1CCc2nc(N3CCN(Cc4ccc(Cl)cc4F)CC3)c(-c3ccc(F)c(N)n3)nc2C1 [Compound 610, 1-[3-(6-amino-5-fluoro-2-pyridyl)-2-{4-[(4-chloro-2-fluorophenyl)methyl]-1-piperazinyl}-5,6,7,8-tetrahydro-1,4,6-triaza-6-naphthyl]-1-ethanone]	–	–	4.52 to 6.00	> 7.00
COC(=O)N1CCc2nc(N3CCC(Oc4ccc(F)cc4F)CC3)c(-c3ccc(F)c(N)n3)nc2C1 [Compound 611, 6-{2-[4-(2,4-difluorophenoxy)-1-piperidyl]-6-methoxycarbonyl-5,6,7,8-tetrahydro-1,4,6-triaza-3-naphthyl}-3-fluoro-2-pyridylamine]	–	–	4.52 to 6.00	> 7.00
CC(C)(O)C(=O)c1cc2nc(N3CCC(Oc4ccc(F)cc4F)CC3)c(-c3cnn(C(F)F)c3)nc2cn1 [Compound 616, 1-{3-[1-(difluoromethyl)-4-pyrazolyl]-2-[4-(2,4-difluorophenoxy)-1-piperidyl]-1,4,6-triaza-7-naphthyl}-2-hydroxy-2-methyl-1-propanone]	–	–	4.52 to 6.00	6.00 to 7.00
Cn1cc(-c2nc3cnc(C(C)(O)C(C)(C)O)cc3nc2N2CCN(Cc3ccc(F)cc3F)CC2)cn1 (stereo not shown) [Compound 617, 2-(2-{4-[(2,4-difluorophenyl)methyl]-1-piperazinyl}-3-(1-methyl-4-pyrazolyl)-1,4,6-triaza-7-naphthyl)-3-methyl-2,3-butanediol]	–	–	4.52 to 6.00	6.00 to 7.00
CC(C)(O)C(=O)c1cc2nc(N3CCN(Cc4ccccc4F)CC3)c(-c3cnn(C(F)F)c3)nc2cn1 [Compound 618, 1-{3-[1-(difluoromethyl)-4-pyrazolyl]-2-{4-[(o-fluorophenyl)methyl]-1-piperazinyl}-1,4,6-triaza-7-naphthyl}-2-hydroxy-2-methyl-1-propanone]	–	–	4.52 to 6.00	6.00 to 7.00
CC(C)(O)C(=O)c1cc2nc(N3CCN(Cc4ccc(F)cc4F)CC3)c(-c3cnn(C4CC4)c3)nc2cn1 [Compound 619, 1-[3-(1-cyclopropyl-4-pyrazolyl)-2-{4-[(2,4-difluorophenyl)methyl]-1-piperazinyl}-1,4,6-triaza-7-naphthyl]-2-hydroxy-2-methyl-1-propanone]	–	–	4.52 to 6.00	6.00 to 7.00
CC(C)(O)C(=O)c1cc2nc(-c3cnn(C(F)F)c3)c(N3CCN(Cc4ccc(F)cc4F)CC3)nc2cn1 [Compound 620, 1-{2-[1-(difluoromethyl)-4-pyrazolyl]-3-{4-[(2,4-difluorophenyl)methyl]-1-piperazinyl}-1,4,6-triaza-7-naphthyl}-2-hydroxy-2-methyl-1-propanone]	–	–	6.00 to 7.00	6.00 to 7.00
CC(C)(O)C(=O)c1cc2nc(N3CCC(Oc4ccc(F)cc4F)CC3)c(-c3cnn(CF)c3)nc2cn1 [Compound 621, 1-{2-[4-(2,4-difluorophenoxy)-1-piperidyl]-3-[1-(fluoromethyl)-4-pyrazolyl]-1,4,6-triaza-7-naphthyl}-2-hydroxy-2-methyl-1-propanone]	–	–	4.52 to 6.00	6.00 to 7.00
CC(C)(O)C(C)(O)c1cc2nc(N3CCN(Cc4ccccc4F)CC3)c(-c3cnn(CF)c3)nc2cn1 (stereo not shown) [Compound 622, 2-{3-[1-(fluoromethyl)-4-pyrazolyl]-2-{4-[(o-fluorophenyl)methyl]-1-piperazinyl}-1,4,6-triaza-7-naphthyl}-3-methyl-2,3-butanediol]	–	–	4.52 to 6.00	6.00 to 7.00
CC(=O)N1CCc2nc(N3CCC(=Cc4ccccc4F)CC3)c(-c3cnn(C)c3)nc2C1 [Compound 623, 1-(2-{4-[(o-fluorophenyl)methylene]-1-piperidyl}-3-(1-methyl-4-pyrazolyl)-5,6,7,8-tetrahydro-1,4,6-triaza-6-naphthyl)-1-ethanone]	–	–	6.00 to 7.00	6.00 to 7.00
CCn1cc(-c2nc3cnc(C(=O)C(C)(C)O)cc3nc2N2CCN(Cc3ccc(F)cc3F)CC2)cn1 [Compound 624, 1-(2-{4-[(2,4-difluorophenyl)methyl]-1-piperazinyl}-3-(1-ethyl-4-pyrazolyl)-1,4,6-triaza-7-naphthyl)-2-hydroxy-2-methyl-1-propanone]	–	–	4.52 to 6.00	6.00 to 7.00
CC(C)(O)C(=O)c1cc2nc(N3CCC(Oc4ccc(F)cc4F)CC3)c(-c3cnn(C4CC4)c3)nc2cn1 [Compound 625, 1-{3-(1-cyclopropyl-4-pyrazolyl)-2-[4-(2,4-difluorophenoxy)-1-piperidyl]-1,4,6-triaza-7-naphthyl}-2-hydroxy-2-methyl-1-propanone]	–	–	4.52 to 6.00	6.00 to 7.00
C=CC(=O)N1CCc2nc(N3CCC(Oc4ccc(F)cc4F)CC3)c(-c3ccc(F)c(N)n3)nc2C1 [Compound 626, 1-{3-(6-amino-5-fluoro-2-pyridyl)-2-[4-(2,4-difluorophenoxy)-1-piperidyl]-5,6,7,8-tetrahydro-1,4,6-triaza-6-naphthyl}-2-propen-1-one]	–	–	4.52 to 6.00	> 7.00
CC(C)S(=O)(=O)N1CCc2nc(N3CCC(Oc4ccc(F)cc4F)CC3)c(-c3ccc(F)c(N)n3)nc2C1 [Compound 627, 6-{2-[4-(2,4-difluorophenoxy)-1-piperidyl]-6-(isopropylsulfonyl)-5,6,7,8-tetrahydro-1,4,6-triaza-3-naphthyl}-3-fluoro-2-pyridylamine]	–	–	4.52 to 6.00	6.00 to 7.00
COCC(=O)N1CCc2nc(N3CCC(Oc4ccc(F)cc4F)CC3)c(-c3ccc(F)c(N)n3)nc2C1 [Compound 628, 1-{3-(6-amino-5-fluoro-2-pyridyl)-2-[4-(2,4-difluorophenoxy)-1-piperidyl]-5,6,7,8-tetrahydro-1,4,6-triaza-6-naphthyl}-2-methoxy-1-ethanone]	–	–	4.52 to 6.00	6.00 to 7.00
CN(C)C(=O)N1CCc2nc(N3CCC(Oc4ccc(F)cc4F)CC3)c(-c3ccc(F)c(N)n3)nc2C1 [Compound 629, 6-{6-(N,N-dimethylcarbamoyl)-2-[4-(2,4-difluorophenoxy)-1-piperidyl]-5,6,7,8-tetrahydro-1,4,6-triaza-3-naphthyl}-3-fluoro-2-pyridylamine]	–	–	4.52 to 6.00	> 7.00
CC(=O)N1CCc2nc(N3CCN(C(=O)c4ccc(F)cc4F)CC3)c(-c3cnn(C)c3)nc2C1 [Compound 630, 1-{2-[4-(2,4-difluorobenzoyl)-1-piperazinyl]-3-(1-methyl-4-pyrazolyl)-5,6,7,8-tetrahydro-1,4,6-triaza-6-naphthyl}-1-ethanone]	–	–	≤ 4.52	4.52 to 6.00
CCn1cc(-c2nc3cnc(C(C)(O)C(C)(C)O)cc3nc2N2CCC(Oc3ccc(F)cc3F)CC2)cn1 (stereo not shown) [Compound 631, 2-{2-[4-(2,4-difluorophenoxy)-1-piperidyl]-3-(1-ethyl-4-pyrazolyl)-1,4,6-triaza-7-naphthyl}-3-methyl-2,3-butanediol]	–	–	4.52 to 6.00	6.00 to 7.00
CC(C)(O)C(C)(O)c1cc2nc(N3CCC(Oc4ccc(F)cc4F)CC3)c(-c3cnn(C4CC4)c3)nc2cn1 (stereo not shown) [Compound 632, 2-{3-(1-cyclopropyl-4-pyrazolyl)-2-[4-(2,4-difluorophenoxy)-1-piperidyl]-1,4,6-triaza-7-naphthyl}-3-methyl-2,3-butanediol]	–	–	4.52 to 6.00	6.00 to 7.00
CC(C)(O)C(C)(O)c1cc2nc(-c3cnn(C(F)F)c3)c(N3CCN(Cc4ccc(F)cc4F)CC3)nc2cn1 (stereo not shown) [Compound 633, 2-{2-[1-(difluoromethyl)-4-pyrazolyl]-3-{4-[(2,4-difluorophenyl)methyl]-1-piperazinyl}-1,4,6-triaza-7-naphthyl}-3-methyl-2,3-butanediol]	–	–	4.52 to 6.00	> 7.00
CC(C)(O)C(C)(O)c1cc2nc(N3CCN(Cc4ccccc4F)CC3)c(-c3cnn(C(F)F)c3)nc2cn1 (stereo not shown) [Compound 634, 2-{3-[1-(difluoromethyl)-4-pyrazolyl]-2-{4-[(o-fluorophenyl)methyl]-1-piperazinyl}-1,4,6-triaza-7-naphthyl}-3-methyl-2,3-butanediol]	–	–	4.52 to 6.00	6.00 to 7.00
CC(C)(O)C(C)(O)c1cc2nc(N3CCC(Oc4ccc(F)cc4F)CC3)c(-c3cnn(C(F)F)c3)nc2cn1 (stereo not shown) [Compound 635, 2-{3-[1-(difluoromethyl)-4-pyrazolyl]-2-[4-(2,4-difluorophenoxy)-1-piperidyl]-1,4,6-triaza-7-naphthyl}-3-methyl-2,3-butanediol]	–	–	4.52 to 6.00	6.00 to 7.00
